Values of other authors, collected in article PMC10928227, “Assessing biologic/toxicologic effects of extractables from plastic contact materials for advanced therapy manufacturing using cell painting assay and cytotoxicity screening” (Scientific Reports, 2024).
Where two headings read alike, the source gives them in different places.

Columns and labels:
[1] = cited from earlier work; for Chromosome aberration, Micronucleus Assay / DNA damage and repair, COMET or Alkaline Elution / DNA damage and repair, Single Cell Gel Electrophoresis (comet) Assay: in Vivo; for DNA damage and repair, Single Cell Gel Electrophoresis (comet) Assay: ref Yu F. Sasaki et. al., 2000, Critical Reviews in Toxicology,30(6),Pp.629-799
[2] = cited from earlier work; for Genetic Toxicity, unscheduled DNA synthesis (UDS in Vitro): scale Mutagenicity I (ECVAM)
[3] = Database Genotoxicity & Carcinogenicity ECVAM, ref EURL ECVAM genotoxicity and carcinogencity database, Madia F et al, 2020
[4] = Salmonella typhimurium, Strain TA 97, in Vitro, Database: Bacterial mutagenicity ISSSTY, ref CCRIS database,Toxnet databases (Romualdo Benigni)
[5] = Salmonella typhimurium, Strain TA 98, in Vitro, Database: Bacterial mutagenicity ISSSTY, ref CCRIS database,Toxnet databases (Romualdo Benigni)
[6] = Salmonella typhimurium, Strain TA 98, in Vitro, Database: Genotoxicity OASIS, ref P&G
[7] = Salmonella typhimurium, Strain TA 100, in Vitro, Database: Bacterial mutagenicity ISSSTY, ref CCRIS database,Toxnet databases (Romualdo Benigni)
[8] = Salmonella typhimurium, Strain TA 100, in Vitro, Database: Genotoxicity OASIS, ref P&G
[9] = Salmonella typhimurium, Strain TA 102, in Vitro, Database: Bacterial mutagenicity ISSSTY, ref CCRIS database,Toxnet databases (Romualdo Benigni)
[10] = Salmonella typhimurium, Strain TA 1535, in Vitro, Database: Bacterial mutagenicity ISSSTY, ref CCRIS database,Toxnet databases (Romualdo Benigni)
[11] = Salmonella typhimurium, Strain TA 1535, in Vitro, Database: Genotoxicity OASIS, ref P&G
[12] = Salmonella typhimurium, Strain TA 1537, in Vitro, Database: Bacterial mutagenicity ISSSTY, ref CCRIS database,Toxnet databases (Romualdo Benigni)
[13] = Salmonella typhimurium, Strain TA 1537, in Vitro, Database: Genotoxicity OASIS, ref P&G
[14] = in Vitro, Database Genotoxicity & Carcinogenicity ECVAM, ref EURL ECVAM genotoxicity and carcinogencity database, Madia F et al, 2020
[15] = in Vitro, Salmonella typhimurium, Strain TA 97, Database Genotoxicity OASIS, ref P&G
[16] = in Vitro, Salmonella typhimurium, Strain TA 98, Database Genotoxicity OASIS, ref P&G
[17] = in Vitro, Salmonella typhimurium, Strain TA 100, Database Genotoxicity OASIS, ref P&G
[18] = in Vitro, Salmonella typhimurium, Strain TA 102, OECD Guideline 471, Database Genotoxicity OASIS, ref CCRIS database,Toxnet databases
[19] = in Vitro, Salmonella typhimurium, Strain TA 1535, Database Genotoxicity OASIS, ref P&G
[20] = in Vitro, Salmonella typhimurium, Strain TA 1537, Database Genotoxicity OASIS, ref P&G
[21] = in Vitro, Salmonella typhimurium, Strain TA 1538, Database Genotoxicity OASIS, ref P&G
[22] = in Vitro, ref EURL ECVAM genotoxicity and carcinogencity database, Madia F et al, 2020

Compound: Nc1ccccc1 [62-53-3]
- Chromosome aberration, in Vivo Mammalian Chromosome Aberration Test [1, 3]: Positive
- Chromosome aberration, Micronucleus Assay [1, 3]: Positive
- DNA damage and repair, COMET or Alkaline Elution [1, 3]: Positive
- Chromosome aberration, Micronucleus Assay ([1]; Database Genotoxicity OASIS, ref RESS, NB. et. al., MUTAT. RES. 521(1-2):201-208, 2002): Positive
- DNA damage and repair, Single Cell Gel Electrophoresis (comet) Assay ([1]; Database Genotoxicity OASIS): Positive
- Genetic Toxicity, Genotoxicity ([2]; Mammalian cell line, test guideline not reported, scale Gene mutation I, ref Database: Food TOX Hazard EFSA): Positive
- Gene mutation, Bacterial Reverse Mutation Assay (e.g. Ames Test) [2, 4]: Negative
- Gene mutation, Bacterial Reverse Mutation Assay (e.g. Ames Test) ([2]; Salmonella typhimurium, Strain TA 98(NR), in Vitro, Database: Bacterial mutagenicity ISSSTY, ref CCRIS database,Toxnet databases (Romualdo Benigni)): Negative
- Gene mutation, Bacterial Reverse Mutation Assay (e.g. Ames Test) [2, 5]: Negative
- Gene mutation, Bacterial Reverse Mutation Assay (e.g. Ames Test) ([2]; Salmonella typhimurium, Strain TA 98, in Vitro, Database: Genotoxicity OASIS, ref Mutation Research, 168 (1986) 69-240, U.S. Environmental Protection Agency): Negative
- Gene mutation, Bacterial Reverse Mutation Assay (e.g. Ames Test) [2, 6]: Negative
- Gene mutation, Bacterial Reverse Mutation Assay (e.g. Ames Test) [2, 7]: Negative
- Gene mutation, Bacterial Reverse Mutation Assay (e.g. Ames Test) ([2]; Salmonella typhimurium, Strain TA 100, in Vitro, Database: Genotoxicity OASIS, ref Mutation Research, 168 (1986) 69-240, U.S. Environmental Protection Agency): Negative
- Gene mutation, Bacterial Reverse Mutation Assay (e.g. Ames Test) [2, 8]: Negative
- Gene mutation, Bacterial Reverse Mutation Assay (e.g. Ames Test) [2, 9]: Negative
- Gene mutation, Bacterial Reverse Mutation Assay (e.g. Ames Test) [2, 10]: Negative
- Gene mutation, Bacterial Reverse Mutation Assay (e.g. Ames Test) ([2]; Salmonella typhimurium, Strain TA 1535, in Vitro, Database: Genotoxicity OASIS, ref Mutation Research, 168 (1986) 69-240, U.S. Environmental Protection Agency): Negative
- Gene mutation, Bacterial Reverse Mutation Assay (e.g. Ames Test) [2, 11]: Negative
- Gene mutation, Bacterial Reverse Mutation Assay (e.g. Ames Test) [2, 12]: Negative
- Gene mutation, Bacterial Reverse Mutation Assay (e.g. Ames Test) ([2]; Salmonella typhimurium, Strain TA 1537, in Vitro, Database: Genotoxicity OASIS, ref Mutation Research, 168 (1986) 69-240, U.S. Environmental Protection Agency): Negative
- Gene mutation, Bacterial Reverse Mutation Assay (e.g. Ames Test) [2, 13]: Negative
- Gene mutation, Bacterial Reverse Mutation Assay (e.g. Ames Test) ([2]; Salmonella typhimurium, Strain TA 1538, in Vitro, Database: Bacterial mutagenicity ISSSTY, ref CCRIS database,Toxnet databases (Romualdo Benigni)): Negative
- Chromosome aberration, in Vitro Mammalian Chromosome Aberration Test ([2]; in Vitro, Chinese hamster, Chinese Hamster Lung (CHL), Duration 6÷18 h, Database Genotoxicity OASIS, ref Sofuni, T., Ed. (1998). Data Book of Chromosomal Aberration Test In Vitro, Revised Edition): Positive
- Chromosome aberration, Micronucleus Assay [2, 14]: Positive
- Chromosome aberration, in Vitro Mammalian Chromosome Aberration Test [2, 14]: Positive
- Gene mutation, Mammalian Cell Gene Mutation (MLA HPRT) [2, 14]: Positive
- Gene mutation, Bacterial Reverse Mutation Assay (e.g. Ames Test) ([2]; in Vitro, Salmonella typhimurium and Escherichia Coli, Database Genotoxicity & Carcinogenicity ECVAM, ref EURL ECVAM genotoxicity and carcinogencity database, Madia F et al, 2020): Negative
- Gene mutation, Bacterial Reverse Mutation Assay (e.g. Ames Test) [2, 15]: Negative
- Gene mutation, Bacterial Reverse Mutation Assay (e.g. Ames Test) ([2]; in Vitro, Salmonella typhimurium, Strain TA 98, Database Genotoxicity OASIS, ref Mutation Research, 168 (1986) 69-240, U.S. Environmental Protection Agency): Negative
- Gene mutation, Bacterial Reverse Mutation Assay (e.g. Ames Test) [2, 16]: Negative
- Gene mutation, Bacterial Reverse Mutation Assay (e.g. Ames Test) [2, 17]: Negative
- Gene mutation, Bacterial Reverse Mutation Assay (e.g. Ames Test) [2, 18]: Negative
- Gene mutation, Bacterial Reverse Mutation Assay (e.g. Ames Test) [2, 19]: Negative
- Gene mutation, Bacterial Reverse Mutation Assay (e.g. Ames Test) ([2]; in Vitro, Salmonella typhimurium, Strain TA 1537, Database Genotoxicity OASIS, ref Mutation Research, 168 (1986) 69-240, U.S. Environmental Protection Agency): Negative
- Gene mutation, Bacterial Reverse Mutation Assay (e.g. Ames Test) [2, 20]: Negative
- Gene mutation, Bacterial Reverse Mutation Assay (e.g. Ames Test) [2, 21]: Negative
- Genetic Toxicity, unscheduled DNA synthesis (UDS in Vitro) [2, 22]: Negative

Compound: Oc1ccccc1 [108-95-2]
- Chromosome aberration, in Vivo Mammalian Chromosome Aberration Test [1, 3]: Negative
- Chromosome aberration, Micronucleus Assay [1, 3]: Positive
- DNA damage and repair, COMET or Alkaline Elution [1, 3]: Positive
- Chromosome aberration, Micronucleus Assay ([1]; Database Genotoxicity OASIS, ref Ciranni, R., Barale, & Marrazzini, A. (1988), Mutat Res, 208, 61-67): Negative
- DNA damage and repair, Single Cell Gel Electrophoresis (comet) Assay ([1]; Database Genotoxicity OASIS): Positive
- Gene mutation, Bacterial Reverse Mutation Assay (e.g. Ames Test) ([2]; Salmonella typhimurium, No Strain Information, in Vitro, Database: Genotoxicity OASIS, ref Mutation Research 584 (2005) 1-256, Kirkland et al.): Negative
- Gene mutation, Bacterial Reverse Mutation Assay (e.g. Ames Test) [2, 4]: Negative
- Gene mutation, Bacterial Reverse Mutation Assay (e.g. Ames Test) [2, 5]: Negative
- Gene mutation, Bacterial Reverse Mutation Assay (e.g. Ames Test) [2, 6]: Negative
- Gene mutation, Bacterial Reverse Mutation Assay (e.g. Ames Test) [2, 7]: Negative
- Gene mutation, Bacterial Reverse Mutation Assay (e.g. Ames Test) [2, 8]: Negative
- Gene mutation, Bacterial Reverse Mutation Assay (e.g. Ames Test) [2, 9]: Negative
- Gene mutation, Bacterial Reverse Mutation Assay (e.g. Ames Test) ([2]; Salmonella typhimurium, Strain TA 104, in Vitro, Database: Bacterial mutagenicity ISSSTY, ref CCRIS database,Toxnet databases (Romualdo Benigni)): Negative
- Gene mutation, Bacterial Reverse Mutation Assay (e.g. Ames Test) [2, 10]: Negative
- Gene mutation, Bacterial Reverse Mutation Assay (e.g. Ames Test) [2, 11]: Negative
- Gene mutation, Bacterial Reverse Mutation Assay (e.g. Ames Test) [2, 12]: Negative
- Gene mutation, Bacterial Reverse Mutation Assay (e.g. Ames Test) [2, 13]: Negative
- Gene mutation, Bacterial Reverse Mutation Assay (e.g. Ames Test) ([2]; Salmonella typhimurium, Strain TA 7001, in Vitro, Database: Bacterial mutagenicity ISSSTY, ref CCRIS database,Toxnet databases (Romualdo Benigni)): Negative
- Gene mutation, Bacterial Reverse Mutation Assay (e.g. Ames Test) ([2]; Salmonella typhimurium, Strain TA 7002, in Vitro, Database: Bacterial mutagenicity ISSSTY, ref CCRIS database,Toxnet databases (Romualdo Benigni)): Negative
- Gene mutation, Bacterial Reverse Mutation Assay (e.g. Ames Test) ([2]; Salmonella typhimurium, Strain TA 7003, in Vitro, Database: Bacterial mutagenicity ISSSTY, ref CCRIS database,Toxnet databases (Romualdo Benigni)): Negative
- Gene mutation, Bacterial Reverse Mutation Assay (e.g. Ames Test) ([2]; Salmonella typhimurium, Strain TA 7004, in Vitro, Database: Bacterial mutagenicity ISSSTY, ref CCRIS database,Toxnet databases (Romualdo Benigni)): Negative
- Gene mutation, Bacterial Reverse Mutation Assay (e.g. Ames Test) ([2]; Salmonella typhimurium, Strain TA 7005, in Vitro, Database: Bacterial mutagenicity ISSSTY, ref CCRIS database,Toxnet databases (Romualdo Benigni)): Negative
- Gene mutation, Bacterial Reverse Mutation Assay (e.g. Ames Test) ([2]; Salmonella typhimurium, Strain TA 7006, in Vitro, Database: Bacterial mutagenicity ISSSTY, ref CCRIS database,Toxnet databases (Romualdo Benigni)): Negative
- Genetic Toxicity, Gene mutation (Bacterial Reverse Mutation Assay, e.g. Ames Test) ([2]; Salmonella typhimurium, strain TA 100, in Vitro, scale Gene mutation I, ref CCRIS database, Toxnet databases, Database: Bacterial mutagenicity ISSSTY (Romualdo Benigni, 2011)): Negative
- Chromatids exchanges/ recombination, Sister Chromatid Exchange (SCE) [2, 14]: Positive
- Chromosome aberration, Micronucleus Assay [2, 14]: Positive
- DNA damage and repair, DNA Adducts [2, 14]: Positive
- Gene mutation, Bacterial Reverse Mutation Assay (e.g. Ames Test) [2, 14]: Negative
- Gene mutation, Mammalian Cell Gene Mutation (MLA HPRT) [2, 14]: Positive
- Gene mutation, in Vitro Mammalian Cell Micronucleus Test ([2]; in Vitro, Database Genotoxicity OASIS, ref Mutation Research 584 (2005) 1-256, Kirkland et al.): Positive
- Chromosome aberration, in Vitro Mammalian Chromosome Aberration Test ([2]; in Vitro, No Strain Information, Database Genotoxicity OASIS, ref Mutation Research 584 (2005) 1-256, Kirkland et al.): Positive
- Gene mutation, Bacterial Reverse Mutation Assay (e.g. Ames Test) [2, 15]: Negative
- Gene mutation, Bacterial Reverse Mutation Assay (e.g. Ames Test) [2, 16]: Negative
- Gene mutation, Bacterial Reverse Mutation Assay (e.g. Ames Test) [2, 17]: Negative
- Gene mutation, Bacterial Reverse Mutation Assay (e.g. Ames Test) [2, 18]: Negative
- Gene mutation, Bacterial Reverse Mutation Assay (e.g. Ames Test) [2, 19]: Negative
- Gene mutation, Bacterial Reverse Mutation Assay (e.g. Ames Test) [2, 20]: Negative
- Gene mutation, Bacterial Reverse Mutation Assay (e.g. Ames Test) [2, 21]: Negative
- Gene mutation, Mammalian Cell Gene Mutation Assay ([2]; in Vitro, T-lymphoma Cell Lines, Database Genotoxicity OASIS, ref Mutation Research 584 (2005) 1-256, Kirkland et al.): Positive
- Genetic Toxicity, unscheduled DNA synthesis (UDS in Vitro) [2, 22]: Positive
